For one series, the system named is rats. The conditions noted are these: cited from earlier work.
For a further series, the system named is primates. The conditions noted are these: cited from earlier work.
For series [1] the following is noted: cited from earlier work.
The subject of series [2] is prefrontal cortex functions. The conditions noted are these: subjects with the Val/Val genotype; cited from earlier work.
For series [3], the system named is patients with SCZ, BD, Major depression and drug dependency. In words: Clinical studies of entacapone in more than 100 patients, evaluated with the CGI scale. The format is in vivo, human. Here is the method: This new therapeutic application was determined in patients (Men/women) in single-drug and combination drug therapy. 100 patients were treated at a dose range of 3-10-mg/kg day (50 mg/day-800 mg/day) orally for period of 12 weeks and continued for as long as patients consented averaged 12 months or more.
The drug efficacy was evaluated using the CGI (Clinical Global Impression) scale. This is a simple tool that is clinically understandable, has proven to be a robust measure of efficacy in drug treatment trial and is highly sensitive to change of clinical status.

The next series concerns patient with BD. In words: Illustrative case report: a case of BD. The format is in vivo, human. The conditions noted are these: 400 mg/day, follow up. From the text:
Married person, a hedge fund investment manager with history of BD who has had temporary partial response to antidepressants but mainly resulting in exacerbation symptoms of anxiety, relapse to a depression or cycling to mania. They were intolerant of atypical antipsychotics with potential antidepressant effect (Ziprasidone, Aripiprazole and Quetiapine) either as mono therapy or combined with Lithium or Lamotrigine. […] They reported oil Lithium their “up and down swings were better” but complained their depression was not resolved and they were not happy. They also complained of lack of motivation, trouble with concentration, getting easily overwhelmed with their job, inability to feel joy, overall lack of interest in everything, not knowing what to do with themself, gave up on all hobbies, feeling being all consumed, excessive day time napping, feeling bored especially when their time would be unstructured on week end, loss of their spontaneity and resorting to procrastination, They went to an exotic vacation in Caribbean with their spouse with the hope to bounce back. But as they reported they were not able to enjoy their vacation, complained feeling “being stuck at the low bottom and strongly believed they would never come out of it”. They had started to do Marijuana with the hope to improve their mood. They were preoccupied with getting a gun and shoots themself. […]

For series [4], the system named is patients with drug dependency. In words: Illustrative case reports: six cases of drug dependency. The format is in vivo, human.
The conditions of series [5]: in vivo; cited from earlier work.
For series [6] the following is noted: administered in conjunction; cited from earlier work.

Structures are written as SMILES.

Regarding `Cc1ccc(C(=O)c2cc(O)c(O)c([N+](=O)[O-])c2)cc1` [Tolcapone], the “extradimensional set shifting performance mediated by prefrontal cortex catecholamines” value in the series on rats and in the series with primates was “significantly improved” throughout. For the same compound, in series [1] (human, in vivo), the tolerability entry is “well tolerated drug with no major side effects”. Also, in series [1] (reported in Europe in the early years of use), the hepatic failure result is given as “three cases of hepatic failure”.
For the compound `CC(N)Cc1ccccc1` (stereo not shown) [amphetamine], in series [2], the “efficiency of prefrontal cortex functions in working memory tasks” value is on record as “enhanced”.
Take `CCN(CC)C(=O)/C(C#N)=C/c1cc(O)c(O)c([N+](=O)[O-])c1` [entacapone]: the “serious events (physical, neurological or psychiatric adverse effects)” value in series [3] (during the study, 50-800 mg per day) is recorded as “no indication of serious events”. For the same compound, the “cases with improved negative and depressive symptoms (CGI scale)” value in series [3] (entacapone (Comtan) 50-800 mg per day, more than 100 patients) was “more than 60%”. Besides, in series [3] (in comparison to the pre-treatment status), the “effect of discontinuation of treatment on clinical condition” value was “did not cause any worsening of the clinical condition”. For the same compound, in the series on patient with BD, the “duration of maintained effect in BD” value came to 12 months. Also, the “duration of abstinence, Case #2” value in series [4] (cocaine and alcohol dependant, relapsed when entacapone stopped) was determined as 10 months. The “duration of sobriety, Case #3” value in [4] (increased to 400 then 600 mg/day) is reported as 14 months. Further, in [5], the “blood brain barrier penetration relative to tolcapone” value is on record as “half that of about tolcapone”. In addition, in [1] (human, in vivo), the common side effects result is “gastrointestinal problems, including diarrhea, nausea and abdominal pains”; the “safety profile relative to tolcapone” value is “much better safety profile”. Also, in series [1] (related to increased effects of L-DOPA, beginning of treatment), the “most frequent undesirable effects” value is listed as “involuntary movements (dyskinesias)”. The “bioavailability of dopaminergic agents such as L-DOPA” value in series [6] is given as “increases the bioavailability”.

Values taken from patent US20090012177A1, “Treatment of psychiatric disorders using entacapone, tolcapone and other COMT inhibitor or MB-COMT inhibitor drugs” (priority 2006, published 2009).
